According to patent publication US20210309595A1, “COMPOSITION FOR FORMING OPTICAL COMPONENT, OPTICAL COMPONENT, COMPOUND, AND RESIN” (Mitsubishi Gas Chemical Company, Inc., priority 2018, published 2021):

What was measured:
Assay type in all cases: physicochemical
[1] = Refractive index of optical component forming film (spectroscopic ellipsometer); conditions: wavelength 633 nm; 1000 nm film from 5% by mass composition, baked 110° C. 60 seconds
Description: (§1) The compositions for forming optical components were each prepared so that the amount of the compound shown in the following table was 5% by mass in propylene glycol methyl ether. Next, a silicon substrate was spin coated with each of these compositions for forming an optical component, and then baked at 110° C. for 60 seconds to prepare an optical component forming film each having a film thickness of 1000 nm.
(§2) Then, tests for the refractive index and the transparency at a wavelength of 633 nm were carried out by using a vacuum ultraviolet with variable angle spectroscopic ellipsometer (model name: VUV-VASE) manufactured by J.A. Woollam Japan, and the refractive index and the transparency were evaluated.

[2] = Solubility test in organic solvent (amount of dissolution); conditions: amount of dissolution in propylene glycol monomethyl ether, 23° C., ultrasonic waves 30 minutes, visual observation
Description: With respect to the solubility of each compound in an organic solvent, the solubility of the compound in propylene glycol monomethyl ether was measured. The solubility was evaluated according to the following criteria, using the amount of dissolution in propylene glycol monomethyl ether. For the measurement of the amount of dissolution, the evaluation was carried out by precisely weighing the compound in a test tube at 23° C., […], applying ultrasonic waves for 30 minutes with an ultrasonic cleaning machine, visually observing the subsequent state of the liquid, and determining the concentration of the completely dissolved amount as the basis.

[3] = Transparency (absorption coefficient) of optical component forming film; conditions: absorption coefficient at wavelength 633 nm; 1000 nm film, baked 110° C. 60 seconds
Description: as §1, §2

[4] = Film heat resistance (visual defects after baking); parameters: key: A: No visual defects in the film; C: Visual defects in the film (including the loss of films); conditions: film baked at 110° C. for 5 minutes
Description: as §1
The optical component forming film was baked at 110° C. for 5 minutes to evaluate the film heat resistance.

Solubility test [2]	Evaluation of film heat resistance [4]	SMILES	Evaluation of refractive index [1]	Evaluation of transparency [3]
A (5.0% by mass≤amount of dissolution)	A	Oc1ccc2c(C(c3ccc4ccccc4c3)c3c(O)ccc4cc(O)ccc34)c(O)ccc2c1 [BiN-3U]	A (The refractive index is 1.75 or more.)	A (The absorption coefficient is less than 0.03.)
A (5.0% by mass≤amount of dissolution)	A	Oc1cc2ccccc2c(C(c2ccc3ccccc3c2)c2c(O)c(O)cc3ccccc23)c1O [BiN-5U]	A (The refractive index is 1.75 or more.)	A (The absorption coefficient is less than 0.03.)
A (5.0% by mass≤amount of dissolution)	A	C=CCOc1ccc2c3c(ccc2c1)Oc1ccc2cc(OCC=C)ccc2c1C3c1ccc2ccccc2c1 [BiN-3-AL]	A (The refractive index is 1.75 or more.)	A (The absorption coefficient is less than 0.03.)
A (5.0% by mass≤amount of dissolution)	A	Oc1ccc2ccc3c(c2c1)C(c1cccc2ccccc12)c1c(ccc2ccc(O)cc12)O3 [BiN-2]	A (The refractive index is 1.75 or more.)	A (The absorption coefficient is less than 0.03.)
A (5.0% by mass≤amount of dissolution)	A	CC1(c2ccc3ccccc3c2)c2c(ccc3ccc(O)cc23)Oc2ccc3ccc(O)cc3c21 [BiN-4]	A (The refractive index is 1.75 or more.)	A (The absorption coefficient is less than 0.03.)
A (5.0% by mass≤amount of dissolution)	A	CC(C)(C)OC(=O)COc1ccc2c3c(ccc2c1)Oc1ccc2cc(OCC(=O)OC(C)(C)C)ccc2c1C3c1ccc2ccccc2c1 [BiN-3-MeBOC]	B (The refractive index is 1.65 or more and less than 1.75.)	A (The absorption coefficient is less than 0.03.)
A (5.0% by mass≤amount of dissolution)	A	Oc1ccc2c3c(ccc2c1)Oc1ccc2cc(O)ccc2c1C3c1ccc2ccccc2c1 [BiN-3]	A (The refractive index is 1.75 or more.)	A (The absorption coefficient is less than 0.03.)

Second part, the molecule before the results:

SMILES	Solubility test [2]	Evaluation of film heat resistance [4]	Evaluation of refractive index [1]	Evaluation of transparency [3]
C=CC(=O)Oc1ccc2ccc3c(c2c1)C(c1ccc2ccccc2c1)c1c(ccc2ccc(OC(=O)C=C)cc12)O3 [BiN-1-Ac]	A (5.0% by mass≤amount of dissolution)	A	B (The refractive index is 1.65 or more and less than 1.75.)	A (The absorption coefficient is less than 0.03.)
C#CCOc1ccc2ccc3c(c2c1)C(c1ccc2ccccc2c1)c1c(ccc2ccc(OCC#C)cc12)O3 [BiN-1-Pr]	A (5.0% by mass≤amount of dissolution)	A	A (The refractive index is 1.75 or more.)	A (The absorption coefficient is less than 0.03.)
c1ccc2cc(C3c4c(ccc5ccc(OCCOCC6CO6)cc45)Oc4ccc5ccc(OCCOCC6CO6)cc5c43)ccc2c1 (centres unmarked) [BiN-1-GE]	A (5.0% by mass≤amount of dissolution)	A	A (The refractive index is 1.75 or more.)	A (The absorption coefficient is less than 0.03.)
C=Cc1ccc(COc2ccc3ccc4c(c3c2)C(c2ccc3ccccc3c2)c2c(ccc3ccc(OCc5ccc(C=C)cc5)cc23)O4)cc1 [BiN-1-SX]	A (5.0% by mass≤amount of dissolution)	A	A (The refractive index is 1.75 or more.)	A (The absorption coefficient is less than 0.03.)
C=C(C)C(=O)OCCC(N)C(=O)Oc1ccc2ccc3c(c2c1)C(c1ccc2ccccc2c1)c1c(ccc2ccc(OC(=O)C(N)CCOC(=O)C(=C)C)cc12)O3 (centres unmarked) [BiN-1-Ua]	A (5.0% by mass≤amount of dissolution)	A	B (The refractive index is 1.65 or more and less than 1.75.)	A (The absorption coefficient is less than 0.03.)
Oc1ccc(CCOc2ccc3ccc4c(c3c2)C(c2ccc3ccccc3c2)c2c(ccc3ccc(OCCc5ccc(O)cc5)cc23)O4)cc1 [BiN-1-PE]	A (5.0% by mass≤amount of dissolution)	A	A (The refractive index is 1.75 or more.)	A (The absorption coefficient is less than 0.03.)
c1ccc2cc(C3c4c(ccc5ccc(OCC6CO6)cc45)Oc4ccc5ccc(OCC6CO6)cc5c43)ccc2c1 (centres unmarked) [BiN-1-G]	A (5.0% by mass≤amount of dissolution)	A	A (The refractive index is 1.75 or more.)	A (The absorption coefficient is less than 0.03.)
C=Cc1ccc(COCCOc2ccc3ccc4c(c3c2)C(c2ccc3ccccc3c2)c2c(ccc3ccc(OCCOCc5ccc(C=C)cc5)cc23)O4)cc1 [BiN-1-SE]	A (5.0% by mass≤amount of dissolution)	A	A (The refractive index is 1.75 or more.)	A (The absorption coefficient is less than 0.03.)
Oc1ccc(Oc2ccc3ccc4c(c3c2)C(c2ccc3ccccc3c2)c2c(ccc3ccc(Oc5ccc(O)cc5)cc23)O4)cc1 [BiN-1-PX]	A (5.0% by mass≤amount of dissolution)	A	A (The refractive index is 1.75 or more.)	A (The absorption coefficient is less than 0.03.)
OCCOc1ccc2ccc3c(c2c1)C(c1ccc2ccccc2c1)c1c(ccc2ccc(OCCO)cc12)O3 [BiN-1-E]	A (5.0% by mass≤amount of dissolution)	A	B (The refractive index is 1.65 or more and less than 1.75.)	A (The absorption coefficient is less than 0.03.)
C=C(C)C(=O)OCC(O)COc1ccc2ccc3c(c2c1)C(c1ccc2ccccc2c1)c1c(ccc2ccc(OCC(O)COC(=O)C(=C)C)cc12)O3 (centres unmarked) [BiN-1-Ea]	A (5.0% by mass≤amount of dissolution)	A	B (The refractive index is 1.65 or more and less than 1.75.)	A (The absorption coefficient is less than 0.03.)
Oc1ccc2ccc(O)c(C(c3ccc4ccccc4c3)c3c(O)ccc4ccc(O)cc34)c2c1 [BiN-1U]	A (5.0% by mass≤amount of dissolution)	A	A (The refractive index is 1.75 or more.)	A (The absorption coefficient is less than 0.03.)
Oc1ccc2ccc3c(c2c1)C(c1ccc2ccccc2c1)c1c(ccc2ccc(O)cc12)O3 [BiN-1]	A (5.0% by mass≤amount of dissolution)	A	A (The refractive index is 1.75 or more.)	A (The absorption coefficient is less than 0.03.)
